Measured values as given in US12103926B2, “Compounds for treating huntington's disease” (PTC THERAPEUTICS, INC., priority 2018, dated 2024).

test system: Endogenous Huntingtin Protein; assay: Endogenous Huntingtin Protein Assay (ELISA-based MSD electrochemiluminescence assay); assay type: cell-based; settings: MW1 (expanded polyglutamine) or MAB2166 capture antibody; lysates
Experimental: Compounds of Formula (I) were tested using the Meso Scale Discovery (MSD) Assay provided in International Application No. PCT/US2016/066042, filed on Dec. 11, 2016 and claiming priority to United States Provisional Application U.S. 62/265,652 filed on Dec. 10, 2015, the entire contents of which are incorporated herein by reference.
The Endogenous Huntingtin Protein assay used in Example 1 was developed using the ELISA-based MSD electrochemiluminescence assay platform.
Endogenous Huntingtin Protein Assay
Meso Scale Discovery (MSD) 96-well or 384-well plates were coated overnight at 4° C. with MW1 (expanded polyglutamine) or MAB2166 monoclonal antibody (for capture) at a concentration of 1 μg/mL in PBS (30 μL per well). Plates were then washed three times with 300 μL wash buffer (0.05% Tween-20 in PBS) and blocked (100 μL blocking buffer; 5% BSA in PBS) for 4-5 hours at room temperature with rotational shaking and then washed three times with wash buffer.
Samples (25 μL) were transferred to the antibody-coated MSD plate and incubated overnight at 4° C. After removal of the lysates, the plate was washed three times with wash buffer, and 25 μL of #5656S (Cell signaling; rabbit monoclonal) secondary antibody (diluted to 0.25 μg/mL in 0.05% Tween-20 in blocking buffer) was added to each well and incubated with shaking for 1 Hour at room temperature. Following incubation with the secondary antibody, the wells were rinsed with wash buffer after which 25 μL of goat anti-rabbit SULFO TAG secondary detection antibody (required aspect of the MSD system) (diluted to 0.25 μg/mL in 0.05% Tween-20 in blocking buffer) was added to each well and incubated with shaking for 1 hour at room temperature. After rinsing three times with wash buffer, 150 μL of read buffer T with surfactant (MSD) were added to each empty well, and the plate was imaged on a SI 6000 imager (MSD) according to manufacturers' instructions provided for 96- or 384-well plates.

| Compound | IC50 |
| --- | --- |
| Cc1cn(-c2ccc(-c3cnc(N(C)C4CC(C)(C)NC(C)(C)C4)cn3)c(F)c2F)cn1 [Cpd 41, 5-[2,3-difluoro-4-(4-methyl-1H-imidazol-1-yl)phenyl]-N-methyl-N-(2,2,6,6-tetramethylpiperidin-4-yl)pyrazin-2-amine] | 500 to 1000 nM |
| Oc1cc(-c2cn[nH]c2)ccc1-c1cnc(OC2CC3CCC(C2)N3)cn1 (stereo not drawn) [Cpd 25, 2-[5-(8-azabicyclo[3.2.1]oct-3-yloxy)pyrazin-2-yl]-5-(1H-pyrazol-4-yl)phenol] | 3000 to 9000 nM |
| CC1(C)CC(Nc2cnc(-c3ccc(-c4ccc5nccn5n4)cc3O)cn2)CC(C)(C)N1 [Cpd 56, 5-(imidazo[1,2-b]pyridazin-6-yl)-2-{5-[(2,2,6,6-tetramethylpiperidin-4-yl)amino]pyrazin-2-yl}phenol] | < 100 nM |
| Cn1cc(-c2ccc(-c3cnc(NC4CC(C)(C)NC(C)(C)C4)cn3)c(O)c2)cn1 [Cpd 54, 5-(1-methyl-1H-pyrazol-4-yl)-2-{5-[(2,2,6,6-tetramethylpiperidin-4-yl)amino]pyrazin-2-yl}phenol] | < 100 nM |
| CN(c1cnc(-c2ccc(-c3cn[nH]c3)cc2O)cn1)C1CCNCC1 [Cpd 20, 2-{5-[methyl(piperidin-4-yl)amino]pyrazin-2-yl}-5-(1H-pyrazol-4-yl)phenol] | 500 to 1000 nM |
| CN(c1cnc(-c2cc(Cl)c(-c3cn[nH]c3)cc2Cl)cn1)C1CC(C)(C)NC(C)(C)C1 [Cpd 4, 5-[2,5-dichloro-4-(1H-pyrazol-4-yl)phenyl]-N-methyl-N-(2,2,6,6-tetramethylpiperidin-4-yl)pyrazin-2-amine] | 1000 to 3000 nM |
| CC1(C)CC(Nc2cnc(-c3ccc(-n4cc(F)cn4)cc3O)cn2)CC(C)(C)N1 [Cpd 59, 5-(4-fluoro-1H-pyrazol-1-yl)-2-{5-[(2,2,6,6-tetramethylpiperidin-4-yl)amino]pyrazin-2-yl}phenol] | 1000 to 3000 nM |
| CN(c1cnc(-c2ccc(-n3ccnc3)cc2O)cn1)C1CC(C)(C)NC(C)(C)C1 [Cpd 5, 5-(1H-imidazol-1-yl)-2-{5-[methyl(2,2,6,6-tetramethylpiperidin-4-yl)amino]pyrazin-2-yl}phenol] | 500 to 1000 nM |
| CN(c1cnc(-c2ccc(-c3ccn(C)c(=O)c3)cc2O)cn1)C1CC(C)(C)NC(C)(C)C1 [Cpd 18, 4-(3-hydroxy-4-{5-[methyl(2,2,6,6-tetramethylpiperidin-4-yl)amino]pyrazin-2-yl}phenyl)-1-methylpyridin-2(1H)-one] | 1000 to 3000 nM |
| [2H]C([2H])([2H])n1cc(-c2ccc(-c3cnc(N4CCC(NC(C)(C)C)C4)cn3)c(O)c2)cn1 (stereo not drawn) [Cpd 60, 2-{5-[3-(tert-butylamino)pyrrolidin-1-yl]pyrazin-2-yl}-5-[1-(^2H3)methyl-1H-pyrazol-4-yl]phenol] | < 100 nM |
| Cc1[nH]ncc1-c1ccc(-c2cnc(N(C)C3CC(C)(C)NC(C)(C)C3)cn2)c(O)c1 [Cpd 12, 5-(5-methyl-1H-pyrazol-4-yl)-2-{5-[methyl(2,2,6,6-tetramethylpiperidin-4-yl)amino]pyrazin-2-yl}phenol] | 500 to 1000 nM |
| CC1(C)CC(Nc2cnc(-c3ccc(-c4ncccn4)cc3O)cn2)CC(C)(C)N1 [Cpd 47, 5-(pyrimidin-2-yl)-2-{5-[(2,2,6,6-tetramethylpiperidin-4-yl)amino]pyrazin-2-yl} phenol] | 1000 to 3000 nM |
| Oc1cc(-c2cn[nH]c2)ccc1-c1cnc(N2CC3CNCC3C2)cn1 (stereo not drawn) [Cpd 6, 2-[5-(hexahydropyrrolo[3,4-c]pyrrol-2(1H)-yl)pyrazin-2-yl]-5-(1H-pyrazol-4-yl)phenol] | 1000 to 3000 nM |
| CN(c1cnc(-c2ccc(-c3cn[nH]c3)c(F)c2)cn1)C1CC(C)(C)NC(C)(C)C1 [Cpd 16, 5-[3-fluoro-4-(1H-pyrazol-4-yl)phenyl]-N-methyl-N-(2,2,6,6-tetramethylpiperidin-4-yl)pyrazin-2-amine] | 500 to 1000 nM |
| CN(c1cnc(-c2cc(F)c(-c3cn[nH]c3)c(F)c2)cn1)C1CC(C)(C)NC(C)(C)C1 [Cpd 17, 5-[3,5-difluoro-4-(1H-pyrazol-4-yl)phenyl]-N-methyl-N-(2,2,6,6-tetramethylpiperidin-4-yl)pyrazin-2-amine] | 100 to 500 nM |
| Oc1cc(-c2cn[nH]c2)ccc1-c1cnc(NC2CCNCC2)cn1 [Cpd 8, 2-{5-[(piperidin-4-yl)amino]pyrazin-2-yl}-5-(1H-pyrazol-4-yl)phenol] | 1000 to 3000 nM |
| CN(c1cnc(-c2ccc(-n3nccn3)cc2O)cn1)C1CC(C)(C)NC(C)(C)C1 [Cpd 61, 2-{5-[methyl(2,2,6,6-tetramethylpiperidin-4-yl)amino]pyrazin-2-yl}-5-(2H-1,2,3-triazol-2-yl)phenol] | 100 to 500 nM |

| Compound | IC50 |
| --- | --- |
| Cn1cc(-c2ccc(-c3cnc(N4CCC(NC(C)(C)C)C4)cn3)c(O)c2)cn1 (stereo not drawn) [Cpd 62, 2-{5-[3-(tert-butylamino)pyrrolidin-1-yl]pyrazin-2-yl}-5-(1-methyl-1H-pyrazol-4-yl)phenol] | < 100 nM |
| CN(c1cnc(-c2ccc(-n3ccc(N)n3)cc2O)cn1)C1CC(C)(C)NC(C)(C)C1 [Cpd 14, 5-(3-amino-1H-pyrazol-1-yl)-2-{5-[methyl(2,2,6,6-tetramethylpiperidin-4-yl)amino]pyrazin-2-yl}phenol] | 1000 to 3000 nM |
| CN(c1cnc(-c2cc(C#N)c(-c3cn[nH]c3)cc2F)cn1)C1CC(C)(C)NC(C)(C)C1 [Cpd 24, 4-fluoro-5-{5-[methyl(2,2,6,6-tetramethylpiperidin-4-yl)amino]pyrazin-2-yl}-2-(1H-pyrazol-4-yl)benzonitrile] | < 100 nM |
| CC(C)(C)NC1CCN(c2cnc(-c3ccc(-c4cn[nH]c4)cc3O)cn2)C1 (stereo not drawn) [Cpd 52, 2-{5-[3-(tert-butylamino)pyrrolidin-1-yl]pyrazin-2-yl}-5-(1H-pyrazol-4-yl)phenol] | < 100 nM |
| Oc1cc(-c2cn[nH]c2)ccc1-c1cnc(N2CC3(CCNC3)C2)cn1 [Cpd 21, 2-[5-(2,6-diazaspiro[3.4]octan-2-yl)pyrazin-2-yl]-5-(1H-pyrazol-4-yl)phenol] | 1000 to 3000 nM |
| CN(c1cnc(-c2ccc(-c3cn[nH]c3)cc2O)cn1)C1CC(C)(C)NC(C)(C)C1 [Cpd 26, 2-{5-[methyl(2,2,6,6-tetramethylpiperidin-4-yl)amino]pyrazin-2-yl}-5-(1H-pyrazol-4-yl)phenol] | < 100 nM |
| CN(c1cnc(-c2ccc(-c3cnn(C)c3)cc2O)cn1)C1CC(C)(C)NC(C)(C)C1 [Cpd 27, 5-(1-methyl-1H-pyrazol-4-yl)-2-{5-[methyl(2,2,6,6-tetramethylpiperidin-4-yl)amino]pyrazin-2-yl} phenol] | 100 to 500 nM |
| CN(c1cnc(-c2cc(F)c(-c3cn[nH]c3)cc2O)cn1)C1CC(C)(C)NC(C)(C)C1 [Cpd 22, 4-fluoro-2-{5-[methyl(2,2,6,6-tetramethylpiperidin-4-yl)amino]pyrazin-2-yl}-5-(1H-pyrazol-4-yl)phenol] | < 100 nM |
| CC1(C)CC(Oc2cnc(-c3ccc(-c4cn[nH]c4)c(F)c3F)cn2)CC(C)(C)N1 [Cpd 10, 2-[2,3-difluoro-4-(1H-pyrazol-4-yl)phenyl]-5-[(2,2,6,6-tetramethylpiperidin-4-yl)oxy]pyrazine] | 1000 to 3000 nM |
| Cc1ncn(-c2cc(F)c(-c3cnc(N(C)C4CC(C)(C)NC(C)(C)C4)cn3)cc2F)n1 [Cpd 42, 5-[2,5-difluoro-4-(3-methyl-1H-1,2,4-triazol-1-yl)phenyl]-N-methyl-N-(2,2,6,6-tetramethylpiperidin-4-yl)pyrazin-2-amine] | 100 to 500 nM |
| CC1(C)CC(Oc2cnc(-c3ccc(-c4cn[nH]c4)cc3O)cn2)CC(C)(C)N1 [Cpd 2, 5-(1H-pyrazol-4-yl)-2-{5-[(2,2,6,6-tetramethylpiperidin-4-yl)oxy]pyrazin-2-yl}phenol] | 500 to 1000 nM |
| CN(c1cnc(-c2ccc(-c3cn[nH]c3C(F)(F)F)cc2O)cn1)C1CC(C)(C)NC(C)(C)C1 [Cpd 9, 2-{5-[methyl(2,2,6,6-tetramethylpiperidin-4-yl)amino]pyrazin-2-yl}-5-[5-(trifluoromethyl)-1H-pyrazol-4-yl]phenol] | 1000 to 3000 nM |
| CC1(C)CC(Nc2cnc(-c3ccc(-c4ccccn4)cc3O)cn2)CC(C)(C)N1 [Cpd 48, 5-(pyridin-2-yl)-2-{5-[(2,2,6,6-tetramethylpiperidin-4-yl)amino]pyrazin-2-yl}phenol] | 3000 to 9000 nM |
| CC1(C)CC(Nc2cnc(-c3ccc(-c4cn[nH]c4F)cc3O)cn2)CC(C)(C)N1 [Cpd 57, 5-(5-fluoro-1H-pyrazol-4-yl)-2-{5-[(2,2,6,6-tetramethylpiperidin-4-yl)amino]pyrazin-2-yl}phenol] | < 100 nM |
| CC1(C)CC(Nc2cnc(-c3ccc(-c4cn5ccnc5cn4)cc3O)cn2)CC(C)(C)N1 [Cpd 53, 5-(imidazo[1,2-a]pyrazin-6-yl)-2-{5-[(2,2,6,6-tetramethylpiperidin-4-yl)amino]pyrazin-2-yl}phenol] | 100 to 500 nM |
| CN(c1cnc(-c2ccc(-c3cn[nH]c3)cc2O)cn1)C1CC2(CCCCC2)NC2(CCCCC2)C1 (stereo not drawn) [Cpd 3, 2-{5-[(7-azadispiro[5.1.5^8.3^6]hexadecan-15-yl)(methyl)amino]pyrazin-2-yl}-5-(1H-pyrazol-4-yl)phenol] | 1000 to 3000 nM |
